For twelve compounds, IC50 results are on record in US20260138990A1, “TRICYCLIC FUSED IMIDAZOLE COMPOUNDS AS CD38 MODULATORS AND USES THEREOF” (AEOVIAN PHARMACEUTICALS, INC., priority 2023, published 2026).

The target of one test is T1, mouse CD38 (Mus musculus, UniProt P56528).
T1 construct: purchased Bio-Techne GmbH 4947-AC
T1 sequence (P56528 1-304): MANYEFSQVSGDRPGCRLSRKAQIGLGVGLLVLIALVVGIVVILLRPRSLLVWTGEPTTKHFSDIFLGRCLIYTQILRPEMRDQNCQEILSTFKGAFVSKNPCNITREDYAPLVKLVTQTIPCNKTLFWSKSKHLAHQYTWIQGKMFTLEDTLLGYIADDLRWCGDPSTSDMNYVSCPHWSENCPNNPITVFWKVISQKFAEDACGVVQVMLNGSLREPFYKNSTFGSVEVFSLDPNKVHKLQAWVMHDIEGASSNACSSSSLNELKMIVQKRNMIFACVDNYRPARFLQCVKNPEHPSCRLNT
The experiment in a line: NAD+ cyclase activity assay with mouse recombinant CD38 protein (ε-NAD fluorescence). Type of test: biochemical. The settings on record: 0.6 nM mouse CD38, substrate ε-NAD, 30 min preincubation, fluorescence 300/410 nm. The method, boiled down:
(§1)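 Twelve-point threefold compound dilutions were given 30 min at room temperature with 0.6 nM mouse or 1.9 nM human CD38 before […] ε-NAD was added (pH 7.5 HEPES/sucrose/Tween buffer). The rate came from the linear-phase slope of ex 300/em 410 nm fluorescence against vehicle and no-CD38 controls.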

A further test deals with T2, human CD38 (Homo sapiens, UniProt P28907).
T2 construct: purchased Bio-Techne GmbH AVI2404
T2 sequence (P28907 1-300): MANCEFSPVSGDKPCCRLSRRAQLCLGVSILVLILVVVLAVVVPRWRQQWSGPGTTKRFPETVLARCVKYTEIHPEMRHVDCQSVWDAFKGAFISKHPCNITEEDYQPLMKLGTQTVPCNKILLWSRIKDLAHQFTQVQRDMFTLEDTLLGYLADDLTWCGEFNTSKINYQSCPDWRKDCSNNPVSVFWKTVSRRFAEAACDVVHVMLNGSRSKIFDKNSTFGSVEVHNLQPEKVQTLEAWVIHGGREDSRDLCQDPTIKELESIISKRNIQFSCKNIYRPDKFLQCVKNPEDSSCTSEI
The experiment in a line: NAD+ cyclase activity assay with human recombinant CD38 protein (ε-NAD fluorescence). It counts as biochemical. As to conditions: 1.9 nM human CD38, substrate ε-NAD, 30 min preincubation, fluorescence 300/410 nm. In a few lines: as §1

SMILES strings stand for the structures.

On to `Cn1ccc(NC(=O)c2ccc3c(c2)-c2cncn2CCO3)cc1=O` [Compound 36A, N-(1-Methyl-2-oxo-1,2-dihydropyridin-4-yl)-5,6-dihydrobenzo[f]imidazo[1,5-d][1,4]oxazepine-10-carboxamide], for which the IC50 (in general, the point on the concentration scale where inhibition reaches its midpoint) at mouse CD38 is under 1 nM; on human CD38, under 30 nM.
On to `O=C(Nc1ccc2c(c1)COC2)c1ccc2c(c1)-c1cncn1CCO2` [Compound 33A, N-(1,3-Dihydroisobenzofuran-5-yl)-5,6-dihydrobenzo[f]imidazo[1,5-d][1,4]oxazepine-10-carboxamide], for which the IC50 on mouse CD38 is 1 to 10 nM; on human CD38, under 30 nM.
As for `CS(=O)(=O)CCN[C@H]1CC[C@H](NC(=O)c2ccc3c(c2)-c2cncn2CCO3)CC1` [Compound 106A, N-((1r,4r)-4-((2-(Methylsulfonyl)ethyl)amino)cyclohexyl)-5,6-dihydrobenzo[f]imidazo[1,5-d][1,4]oxazepine-10-carboxamide], the values for the IC50 on mouse CD38 and on human CD38 were 1 to 10 nM and 30 to 100 nM, respectively.
For the compound `COCCO[C@H]1CC[C@H](NC(=O)c2cc(C)c3c(c2)-c2cncn2CCO3)CC1` [Compound 53A, N-((1r,4r)-4-(2-Methoxyethoxy)cyclohexyl)-8-methyl-5,6-dihydrobenzo[f]imidazo[1,5-d][1,4]oxazepine-10-carboxamide], the IC50 is under 1 nM at mouse CD38 and under 30 nM on human CD38.
For `CS(=O)(=O)c1cccc(NC(=O)c2ccc3c(c2)-c2cncn2CCO3)c1` [Compound 18A, N-(3-(Methylsulfonyl)phenyl)-5,6-dihydrobenzo[f]imidazo[1,5-d][1,4]oxazepine-10-carboxamide], in that order: under 1 nM and under 30 nM.
The matching figures for `CC1(NC(=O)c2cc(F)c3c(c2)-c2cncn2CCO3)CCS(=O)(=O)C1` (stereo not drawn) [Compound 169A, 8-Fluoro-N-(3-methyl-1,1-dioxidotetrahydrothiophen-3-yl)-5,6-dihydrobenzo[f]imidazo[1,5-d][1,4]oxazepine-10-carboxamide]: 10 to 100 nM and 30 to 100 nM.
As for `O=C(Nc1cnc(N2CC(C(F)F)C2)nc1)c1ccc2c(c1)-c1cncn1CCO2` [Compound 124A, N-(2-(3-(Difluoromethyl)azetidin-1-yl)pyrimidin-5-yl)-5,6-dihydrobenzo[f]imidazo[1,5-d][1,4]oxazepine-10-carboxamide], the IC50 at mouse CD38 is 10 to 100 nM; at human CD38, under 30 nM.
For `CN(C)c1nc2ccc(C(=O)N[C@@H]3CCCOC3)cc2n2cncc12` [Compound 35A, (R)-4-(Dimethylamino)-N-(tetrahydro-2H-pyran-3-yl)imidazo[1,5-a]quinoxaline-8-carboxamide], in that order: over 100 nM and over 1000 nM.
As to `COCCNc1nc2ccc(C(=O)N[C@@H]3CCCOC3)cc2n2cncc12` [Compound 27A, (R)-4-((2-Methoxyethyl)amino)-N-(tetrahydro-2H-pyran-3-yl)imidazo[1,5-a]quinoxaline-8-carboxamide], the IC50 at mouse CD38 was in the range of 1 to 10 nM; on human CD38 it was 100 to 1000 nM.
The matching figures for `CS(=O)(=O)C1CCC(NC(=O)c2ccc3c(c2)-c2cncn2CCO3)CC1` (stereo not drawn) [Compound 146A, N-(4-(Methylsulfonyl)cyclohexyl)-5,6-dihydrobenzo[f]imidazo[1,5-d][1,4]oxazepine-10-carboxamide]: 10 to 100 nM and 30 to 100 nM.
Turning to `O=C(N[C@H]1CC[C@@H](N2CC(F)(F)C2)CC1)c1ccc2c(c1)-c1cncn1CCO2` [Compound 64A, N-((1s,4s)-4-(3,3-Difluoroazetidin-1-yl)cyclohexyl)-5,6-dihydrobenzo[f]imidazo[1,5-d][1,4]oxazepine-10-carboxamide], the IC50 at mouse CD38 lay within 10 to 100 nM; on human CD38 it was 100 to 1000 nM.
As to `C[C@@H]1CCC[C@H](C)[C@H]1NC(=O)c1cc(F)c2c(c1)-c1cncn1CCO2` [Compound 176A, N-(trans-2-trans-6-Dimethylcyclohexyl)-8-fluoro-5,6-dihydrobenzo[f]imidazo[1,5-d][1,4]oxazepine-10-carboxamide], the IC50 at mouse CD38 was 1 to 10 nM; at human CD38, under 30 nM.
